Test results from PMC10641818, “Development of First-in-Class Dual Sirt2/HDAC6 Inhibitors as Molecular Tools for Dual Inhibition of Tubulin Deacetylation” (Journal of Medicinal Chemistry, 2023).

Experiments:
Sirt2 = biological target: T1, Sirt2 (Homo sapiens, UniProt Q8IXJ6); test: Sirt2 in vitro deacetylation assay (ZMAL, trypsin-based fluorescence); assay type: biochemical; conditions: deacetylation, mean ± SD
T1 construct: the respective sirtuin (Sirt1_134–747, Sirt2_56–356, or Sirt3_118–395) was mixed with; made in house; host or cells: Escherichia coli BL21 Star (DE3)
T1 sequence (Q8IXJ6 56-356): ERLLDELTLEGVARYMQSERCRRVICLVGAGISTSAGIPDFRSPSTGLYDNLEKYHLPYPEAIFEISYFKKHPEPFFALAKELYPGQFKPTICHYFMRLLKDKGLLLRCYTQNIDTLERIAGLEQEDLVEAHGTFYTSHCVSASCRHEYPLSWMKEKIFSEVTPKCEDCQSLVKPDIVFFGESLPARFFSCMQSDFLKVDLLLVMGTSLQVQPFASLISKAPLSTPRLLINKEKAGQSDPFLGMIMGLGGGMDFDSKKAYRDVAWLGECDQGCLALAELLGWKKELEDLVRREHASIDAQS

HDAC3/NcoR2 = biological target: T2, HDAC3/NcoR2 (Homo sapiens, UniProt O15379); test: HDAC3 in vitro deacetylation assay (ZMAL); assay type: biochemical; conditions: mean ± SD
T2 construct: purchased BPS Bioscience 50003
T2 sequence (O15379 whole entry): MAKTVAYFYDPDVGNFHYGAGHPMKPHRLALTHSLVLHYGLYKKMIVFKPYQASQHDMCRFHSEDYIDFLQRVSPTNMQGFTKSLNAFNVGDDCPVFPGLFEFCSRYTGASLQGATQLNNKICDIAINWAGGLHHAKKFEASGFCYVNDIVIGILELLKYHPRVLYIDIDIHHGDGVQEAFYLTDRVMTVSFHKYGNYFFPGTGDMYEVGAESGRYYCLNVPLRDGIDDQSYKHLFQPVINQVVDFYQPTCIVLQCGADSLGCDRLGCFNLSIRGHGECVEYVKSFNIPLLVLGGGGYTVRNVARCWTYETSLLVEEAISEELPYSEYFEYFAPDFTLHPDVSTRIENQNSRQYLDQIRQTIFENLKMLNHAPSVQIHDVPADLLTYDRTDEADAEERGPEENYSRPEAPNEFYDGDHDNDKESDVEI
T2 sequence (Q9Y618 395-489 partner limits assumed): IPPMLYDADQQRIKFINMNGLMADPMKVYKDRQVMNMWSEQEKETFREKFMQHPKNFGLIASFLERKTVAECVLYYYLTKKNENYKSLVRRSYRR

[1] = system: MCF-7 breast cancer cells; test: Cell viability assay (MTT) MCF-7; assay type: cell-based; conditions: 72 h, @ 50 μM
Method: (§1) Cell viability assays of HGC27 and PC-3M-luc cells were performed by using the Celltiter 96 Aqueous Nonradioactive Proliferation Assay (Promega). Cells were seeded in sterile 96-well plates at a density of 2000 cells per well and incubated overnight at 37 °C and 5% CO2. Compound or vehicle were added to a final concentration of 0.5% DMSO. […] Cells were seeded at densities of 10^4 cells/well for W1 cells or 2 × 10^3 cells/well for MCF-7 cells. Tests were performed in 96-well plates (Sarstedt AG, Nümbrecht, Germany). After incubation overnight, cells were supplemented with half logarithmic dilution series of the indicated compounds and DPBS (PAN Biotech GmbH, Aidenbach, Germany) as control. Then 72 h after addition of cytostatic treatment, the MTT solution (20 μL, 5 mg/mL) was added into the wells for 1 h at 37 °C and 5% CO2 until formazan crystals were formed. The supernatant was removed, and the cells were dissolved in 200 μL of DMSO. Absorption was analyzed at 570 nm, with background subtraction at 690 nm, using a plate reader (Thermomultiscan EX, Thermo, Schwerte, Germany). Cell viability was then determined by nonlinear regression and a four-parameter logistic equation with variable hill slope. […] The significance of the difference of the effects of 33 and 4 + 57 was determined by using an unpaired, two-tailed t test with Welch’s correction, implemented in GraphPad Prism 8.4.0 (GraphPad, USA). Statistical significance was accepted if p < 0.05. Asterisks indicate *p < 0.05, **p < 0.01.

HDAC1 = biological target: T3, HDAC1 (Homo sapiens, UniProt Q13547); test: HDAC1 in vitro deacetylation assay (ZMAL); assay type: biochemical; conditions: deacetylation, mean ± SD
T3 construct: purchased BPS Bioscience 50051
T3 sequence (Q13547 whole entry): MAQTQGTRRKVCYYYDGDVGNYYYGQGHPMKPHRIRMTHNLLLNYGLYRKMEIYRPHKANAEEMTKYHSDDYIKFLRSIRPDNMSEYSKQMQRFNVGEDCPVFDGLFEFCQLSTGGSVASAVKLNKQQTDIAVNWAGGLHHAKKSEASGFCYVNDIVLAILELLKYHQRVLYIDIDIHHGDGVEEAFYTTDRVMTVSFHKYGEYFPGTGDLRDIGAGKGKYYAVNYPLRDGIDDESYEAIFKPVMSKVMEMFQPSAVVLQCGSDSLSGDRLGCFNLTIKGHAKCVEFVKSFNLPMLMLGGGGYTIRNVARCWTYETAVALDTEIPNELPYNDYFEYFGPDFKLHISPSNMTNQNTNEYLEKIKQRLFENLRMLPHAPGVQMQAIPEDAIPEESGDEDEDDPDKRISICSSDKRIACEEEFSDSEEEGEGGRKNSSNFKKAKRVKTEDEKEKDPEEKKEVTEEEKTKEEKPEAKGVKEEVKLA

Sirt3 = biological target: T4, Sirt3 (Homo sapiens, UniProt Q9NTG7); test: Sirt3 in vitro deacetylation assay (ZMAL); assay type: biochemical
T4 construct: the respective sirtuin (Sirt1_134–747, Sirt2_56–356, or Sirt3_118–395) was mixed with; made in house; host or cells: Escherichia coli BL21 Star (DE3)
T4 sequence (Q9NTG7 118-395): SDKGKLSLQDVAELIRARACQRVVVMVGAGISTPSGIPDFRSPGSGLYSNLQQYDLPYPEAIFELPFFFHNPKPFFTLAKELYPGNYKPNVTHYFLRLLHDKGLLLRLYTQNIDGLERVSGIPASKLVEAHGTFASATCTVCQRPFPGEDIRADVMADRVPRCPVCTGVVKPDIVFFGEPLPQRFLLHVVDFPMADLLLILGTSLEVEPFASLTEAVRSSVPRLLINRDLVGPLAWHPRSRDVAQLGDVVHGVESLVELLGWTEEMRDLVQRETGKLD

W1 ovarian cancer cells = test: Cell viability assay (MTT) W1; assay type: cell-based; conditions: 72 h, @ 50 μM
Method: as §1

HDAC6 = biological target: T5, HDAC6 (Homo sapiens, UniProt Q9UBN7); test: HDAC6 in vitro deacetylation assay (ZMAL); assay type: biochemical; parameters: purchased BPS Bioscience 50006; conditions: deacetylation, mean ± SD
T5 sequence (Q9UBN7 1-1215): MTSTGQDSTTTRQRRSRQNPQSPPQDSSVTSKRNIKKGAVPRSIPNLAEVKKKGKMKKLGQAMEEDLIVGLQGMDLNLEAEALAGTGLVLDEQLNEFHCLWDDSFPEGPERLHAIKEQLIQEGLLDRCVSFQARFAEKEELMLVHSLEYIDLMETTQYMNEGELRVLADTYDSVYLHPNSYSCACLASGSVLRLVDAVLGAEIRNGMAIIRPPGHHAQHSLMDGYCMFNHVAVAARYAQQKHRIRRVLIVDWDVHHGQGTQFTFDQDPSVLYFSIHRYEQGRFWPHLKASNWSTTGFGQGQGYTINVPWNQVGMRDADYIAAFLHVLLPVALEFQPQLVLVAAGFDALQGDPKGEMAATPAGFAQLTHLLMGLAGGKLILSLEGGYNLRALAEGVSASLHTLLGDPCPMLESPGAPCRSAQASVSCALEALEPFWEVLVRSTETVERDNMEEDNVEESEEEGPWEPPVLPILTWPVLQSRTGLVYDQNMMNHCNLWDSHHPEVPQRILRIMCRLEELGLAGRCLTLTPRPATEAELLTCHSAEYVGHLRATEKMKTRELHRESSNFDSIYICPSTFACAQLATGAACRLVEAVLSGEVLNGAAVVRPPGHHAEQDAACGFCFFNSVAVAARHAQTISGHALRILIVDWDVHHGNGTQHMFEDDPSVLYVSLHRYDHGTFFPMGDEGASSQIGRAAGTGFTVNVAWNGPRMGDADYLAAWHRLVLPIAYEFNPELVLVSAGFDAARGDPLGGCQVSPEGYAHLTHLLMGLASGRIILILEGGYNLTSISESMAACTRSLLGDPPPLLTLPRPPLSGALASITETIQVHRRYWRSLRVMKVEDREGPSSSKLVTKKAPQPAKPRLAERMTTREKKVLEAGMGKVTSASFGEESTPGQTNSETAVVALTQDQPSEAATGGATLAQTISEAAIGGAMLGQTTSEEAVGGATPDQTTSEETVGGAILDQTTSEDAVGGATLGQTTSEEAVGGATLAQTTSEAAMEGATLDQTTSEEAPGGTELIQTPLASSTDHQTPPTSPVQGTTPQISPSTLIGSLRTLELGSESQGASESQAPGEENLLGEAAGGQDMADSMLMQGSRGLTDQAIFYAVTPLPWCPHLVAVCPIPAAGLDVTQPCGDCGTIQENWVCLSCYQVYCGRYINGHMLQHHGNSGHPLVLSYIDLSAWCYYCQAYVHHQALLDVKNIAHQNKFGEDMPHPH

Sirt1 = biological target: T6, Sirt1 (Homo sapiens, UniProt Q96EB6); test: Sirt1 in vitro deacetylation assay (ZMAL); assay type: biochemical
T6 construct: the respective sirtuin (Sirt1_134–747, Sirt2_56–356, or Sirt3_118–395) was mixed with; made in house; host or cells: Escherichia coli BL21 Star (DE3)
T6 sequence (Q96EB6 134-747): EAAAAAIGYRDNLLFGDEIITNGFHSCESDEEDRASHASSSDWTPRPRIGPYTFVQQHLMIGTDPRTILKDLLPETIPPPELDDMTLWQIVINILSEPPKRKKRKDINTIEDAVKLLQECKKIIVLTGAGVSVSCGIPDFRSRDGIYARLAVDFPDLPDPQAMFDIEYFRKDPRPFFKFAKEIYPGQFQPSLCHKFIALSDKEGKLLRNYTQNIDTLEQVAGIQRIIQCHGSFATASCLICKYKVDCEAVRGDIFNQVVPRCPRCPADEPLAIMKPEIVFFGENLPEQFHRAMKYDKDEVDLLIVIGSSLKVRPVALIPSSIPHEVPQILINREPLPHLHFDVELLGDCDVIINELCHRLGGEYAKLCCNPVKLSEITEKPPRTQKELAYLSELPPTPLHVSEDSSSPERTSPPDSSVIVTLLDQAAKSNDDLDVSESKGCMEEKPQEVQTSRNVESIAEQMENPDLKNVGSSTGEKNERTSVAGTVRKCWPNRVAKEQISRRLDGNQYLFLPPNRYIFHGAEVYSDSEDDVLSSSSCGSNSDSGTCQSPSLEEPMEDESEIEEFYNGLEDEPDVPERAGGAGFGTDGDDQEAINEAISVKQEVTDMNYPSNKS

Sirt2 (demyristoylation) = biological target: T7, Sirt2 (demyristoylation) (Homo sapiens, UniProt Q8IXJ6); test: Discontinuous Sirt2 demyristoylation assay (ZMML substrate); assay type: biochemical; conditions: mean ± SD
T7 construct: the respective sirtuin (Sirt1_134–747, Sirt2_56–356, or Sirt3_118–395) was mixed with; made in house; host or cells: Escherichia coli BL21 Star (DE3)
T7 sequence (Q8IXJ6 56-356): T1 sequence (Q8IXJ6 56-356)

[2] = system: HGC27 gastric carcinoma cells; test: Cell viability assay (MTS) HGC27; assay type: cell-based; conditions: Homo sapiens, HGC-27; 72 h, MTS, mean ± SD
Method: as §1

[3] = system: PC-3M-luc prostate cancer cells; test: Cell viability assay (MTS) PC-3M-luc; assay type: cell-based; conditions: 72 h, @ 50 μM
Method: as §1

HDAC2 = biological target: T8, HDAC2 (Homo sapiens, UniProt Q92769); test: HDAC2 in vitro deacetylation assay (ZMAL); assay type: biochemical; conditions: mean ± SD
T8 construct: purchased BPS Bioscience 50052
T8 sequence (Q92769 whole entry): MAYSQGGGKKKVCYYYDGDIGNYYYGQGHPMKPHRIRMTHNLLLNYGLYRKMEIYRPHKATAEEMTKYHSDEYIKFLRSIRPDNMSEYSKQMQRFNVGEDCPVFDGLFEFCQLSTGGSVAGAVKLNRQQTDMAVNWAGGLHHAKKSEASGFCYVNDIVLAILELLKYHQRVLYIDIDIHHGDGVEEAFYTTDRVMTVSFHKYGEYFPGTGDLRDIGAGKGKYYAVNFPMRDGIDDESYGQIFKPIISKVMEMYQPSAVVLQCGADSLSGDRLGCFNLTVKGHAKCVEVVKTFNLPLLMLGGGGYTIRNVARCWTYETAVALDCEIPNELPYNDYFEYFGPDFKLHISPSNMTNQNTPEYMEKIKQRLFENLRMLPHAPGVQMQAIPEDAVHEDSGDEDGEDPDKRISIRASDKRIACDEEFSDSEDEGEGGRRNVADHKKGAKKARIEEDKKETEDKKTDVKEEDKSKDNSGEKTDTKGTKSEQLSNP

IC50 (Sirt2): 480 ± 70 nM
IC50 (HDAC3/NcoR2): 140 ± 10 nM
IC50 (HDAC1): 210 ± 30 nM
inhibition at 20 µM (Sirt3): < 15%
IC50 (HDAC6): 5 ± 0.5 nM
inhibition at 20 µM (Sirt1): < 15%
IC50 (Sirt2 (demyristoylation)): 13200 ± 1900 nM
EC50 [2]: 17200 ± 1000 nM
IC50 (HDAC2): 340 ± 20 nM
SMILES: Cc1cc(C)nc(SCC(=O)Nc2ncc(Cc3cccc(OCc4cn(CCOCCOCCOCCOCCC(=O)Nc5ccc(C(=O)NCCCCCCC(=O)NO)cc5)nn4)c3)s2)n1 [Compound 46, 4-(1-(4-((3-((2-(2-((4,6-Dimethylpyrimidin-2-yl)thio)acetamido)thiazol-5-yl)methyl)phenoxy)methyl)-1H-1,2,3-triazol-1-yl)-3,6,9,12-tetraoxapentadecan-15-amido)-N-(7-(hydroxyamino)-7-oxoheptyl)benzamide]
MCF-7 cellular effect [1]: ni ^b (ni = no inhibition (cellular effect <20% @ 50 μM))
W1 cellular effect (W1 ovarian cancer cells): ni ^b (ni = no inhibition (cellular effect <20% @ 50 μM))
PC-3M-luc cellular effect [3]: ni ^b (ni = no inhibition (cellular effect <20% @ 50 μM))
